Laboratory results from patent US6306853A, “1,4-Dihydropyridine derivatives” (Nikken Chemicals Co., Ltd., priority 1998, dated 2001).
“And” between values parts separate entries of the source, which are not always exact repeats. Equal entries are not always repeated.

Legend:
KB/VJ 300 cells [1] = test: Degree of resistance to ADM (ratio of ADM LD50 concentrations) in multi-drug resistant KB/VJ 300 cells on combined administration of doxorubicin and test compound; type: cell-based, human; settings: VJ-300 (resistant) cells; ADM + test compound 1 μg/ml; relative to ADM alone in KB = 1
Experimental: In Vitro Test of Action Suppressing Proliferation of Cancer Cells combined administration of Doxorubicin
(§1) Human rhinopharynx cancer derived KB cells (i.e., sensitive cells) and their multi-drug resistant clone KB/VJ 300 cells (i.e., resistant cells) were used as the test cells. As the incubation solutions, use was made of 10% fetal calf serum (Flow Laboratories) and Eagle MEM medium (Nissui Seiyaku) containing 0.292 mg/ml of L-glutamine (Flow Laboratories). The tests of the action for overcoming resistance to anti-cancer drugs or action for increasing the effect of the anti-cancer drug with the combined administration of the anti-cancer drug doxorubicin (i.e., adriamycin, ADM) and the test compound were performed as follows:
The test cells were suspended in incubation solutions and adjusted to a cell density of about 200 cells/ml. The cell suspensions were injected in 2 ml amounts into petri dishes and were incubated in a CO2 gas incubator (5% CO2, 95% air) at 37° C. for 24 hours. Then, 5-10 μl of a predetermined concentration of the aqueous ADM solution and a predetermined concentration of a DMSO solution of the test compound were added, then the incubation was continued for a further 6 days. After the end of the incubation, the result was immobilized with methanol, Tripan blue stained and measured for the number of colonies per dish. […]

[2] = tested on: VCR resistant murine leukemia (P388/VCR) cells; test: In vivo overcoming of resistance in VCR resistant murine leukemia (P388/VCR) bearing mice, etoposide with compound 20 mg/kg; design: species or system CDF1 female mice; settings: for Average days of survival / Rate of prolongation of life T/C: VP-16 3 mg/kg + compound 20 mg/kg
Experimental: In Vivo Test of Action Suppressing Proliferation of Cancer Cells by Combined Administration of Anti-cancer Drug Etoposide
Effect of Overcoming Resistance to an Anti-cancer Drug for VCR Resistant Murine Leukemia Cell Bearing Mice
(§2) 1.2×10^5 VCR resistant murine leukemia (P388/VCR) cells were transplanted intravenously into groups of 5-6 CDF1 female mice, then the compound of the present invention (20 mg/kg) and Etoposide (VP-16) (3 mg/kg) were administered intravenously once per day for 5 days, after dissolving them in a physiological salt solution containing a small amount of hydrochloric acid. The observation was started from the next day. The number of survival days were found and the life prolonging rate (T/C) with respect to the controls was found. The effect in overcoming resistance to an anti-cancer drug (T/V) was found by the following formula.
(§3) Effect of overcoming resistance to the anti-cancer drug (T/V) %
(§4) =[(Rate of prolongation of life using VP-16 and the present compound (T/C))/(Rate of prolongation of life using VP-16 alone (T/C))]×100

[3] = tested on: thoracic aorta of the rat; test: Action easing KCl contraction in rat arteries; settings: rat thoracic aorta ring, 50 mM KCl, compound 10^-6 M; read-out: Inhibitory rate of hyperpotassium contraction at 10^-6 M
Experimental: Action Easing KCl Contraction in Rat Arteries
The specimen was stabilized for approximately 60 minutes, then a potassium chloride solution was added to the Magnus tube to give a final concentration of 50 mM. The positive control compound or the compound of the present invention was cumulatively added to become 1×10^-6 M when the contraction reaction occurring at that time reached equilibrium. The contraction force was recorded by an FD-pickup (Nihon Koden) via a polygraph (Nihon Koden).

[4] = Acute toxicity test in mice, intraperitoneal; settings: mouse, in vivo, ip, 7 days observation
Experimental: Animals used: ddY male mice (SLC Japan), 4-5 weeks old, three to five mice per group.
Test method: The compound of the present invention was suspended in 0.5% sodium carboxymethylcellulose (CMC-Na) containing 0.1% Tween 80. It was administered to the mice intraperitoneally in amounts of 250, 500 or 1000 mg/kg in groups of three to five mice. The survival of the animals was observed up until 7 days after administration and LD50 value was calculated according to a Probit method.

KB/VJ 300 cells [5] = test: Degree of resistance to VCR in multi-drug resistant VJ-300 cells on combined administration of vincristine and test compound; type: cell-based, human; settings: relative to KB = 1
Experimental: as §1, with “action for increasing the effect of the anti-cancer drug with the combined administration of the anti-cancer drug doxorubicin (i.e., adriamycin, ADM) and the test compound were performed as follows:” left out
The test cells were suspended in incubation solutions and adjusted to a cell density of about 200 cells/ml. The cell suspensions were injected in 2 ml amounts into petri dishes and were incubated in a CO2 gas incubator (5% CO2, 95% air) at 37° C. for 24 hours. […] After the end of the incubation, the result was immobilized with methanol, Tripan blue stained and measured for the number of colonies per dish. The results were used to prepare a volume-reaction curve. From this, the ADM concentration of the 50% cell survival rate (LD50 ) was calculated and the effect for overcoming resistance to anti-cancer drugs and the effect for increasing the effect of anti-cancer drugs were judged. The results are shown in Table 12 to Table 14 using the concentration of LD50 of ADM in the ADM alone group when KB cells were used as the resistance degree 1 and calculating the resistances of the following LD50 concentrations as relative ratios. […]

[6] = tested on: VCR resistant murine leukemia (P388/VCR) cells; test: In vivo overcoming of resistance in VCR resistant murine leukemia (P388/VCR) bearing mice, etoposide with compound 10 mg/kg; design: species or system CDF1 female mice; settings: VP-16 alone 3 mg/kg
Experimental: as §2, §3, §4
In Vivo Test of Action Suppressing Proliferation of Cancer Cells by Combined Administration of Anti-Cancer Drug Etoposide
The Test Example 3 was repeated using 10 mg/kg administration of the present compound and the effects of overcoming resistance to the anti-cancer drug were determined from the average days of survival.

multidrug resistance = settings: literature statement in words; cited from earlier work
[7] = i.v. once per day for 5 days, vs control

6-Methyl-2-[4-(2-methylimidazo[4,5-b]pyridin-1-yl)phenyl]-4-(2-phenylethyl)-1,4-dihydropyridin-3,5-dicarboxylate 3-ethylester 5-[3-(3-pyridyl)-2-propynyl]ester [Compound 51]
Degree of resistance for ADM, VJ-300 (KB/VJ 300 cells [1]): 1.43

6-Methyl-2-[4-(2-methylimidazo[4,5-b]pyridin-1-yl)phenyl]-4-pentyl-1,4-dihydropyridin-3,5-dicarboxylate 3-ethylester 5-[3-(3-pyridyl)2-propynyl]ester [Compound 52]
Degree of resistance for ADM, VJ-300 (KB/VJ 300 cells [1]): 1.60

CCOC(=O)C1=C(c2ccc(-n3c(C)nc4cnccc43)cc2)NC(C)=C(C(=O)OCC#Cc2cccnc2)C1C (centres unmarked) [Compound 1, 4,6-dimethyl-2-[4-(2-methylimidazo[4,5-c]pyridin-1-yl)phenyl]-1,4-dihydropyridin-3,5-dicarboxylic acid 3-ethylester 5-[3-(3-pyridyl)-2-propynyl]ester]
Average days of survival ([2]; i.v. once per day for 5 days): 13.6 days | Rate of prolongation of life T/C [2, 7]: 148% | inhibition at 1 µM [3]: 0%

CCOC(=O)C1=C(c2ccc(-n3c(C)nc4cnccc43)cc2)NC(C)=C(C(=O)OCC#Cc2cccnc2)C1Cc1ccccc1 (centres unmarked) [Compound 6, 4-Benzyl-6-methyl-2-[4-(2-methylimidazo[4,5-c]pyridin-1-yl)phenyl]-1,4-dihydropyridin-3,5-dicarboxylate 3-ethylester 5-[3-(3-pyridyl)-2-propynyl]ester]
Average days of survival ([2]; i.v. once per day for 5 days): 16.0 days | Rate of prolongation of life T/C [2, 7]: 174% | inhibition at 1 µM [3]: 7.5%

CCOC(=O)C1=C(c2ccc(-n3c(C)nc4cnccc43)cc2)NC(C)=C(C(=O)OCC#Cc2cccnc2)C1CCc1ccccc1 (centres unmarked) [Compound 9, 6-Methyl-2-[4-(2-methylimidazo[4,5-c]pyridin-1-yl)phenyl]-4-(2-phenylethyl)-1,4-dihydropyridin-3,5-dicarboxylate 3-ethylester 5-[3-(3-pyridyl)-2-propynyl]ester]
Average days of survival ([2]; i.v. once per day for 5 days): 15.0 days | Rate of prolongation of life T/C [2, 7]: 163% | LD50 at 168 h [4]: > 1000 mg/kg

CCOC(=O)C1=C(c2ccc(-n3c(C)nc4cnccc43)cc2)NC(C)=C(C(=O)OCC#Cc2cccnc2)C1/C=C/c1ccccc1OC (centres unmarked) [Compound 14, 4-[(E)-2-(2-Methoxyphenyl)ethenyl]-6-methyl-2-[4-(2-methylimidazo[4,5-c]pyridin-1-yl)phenyl]-1,4-dihydropyridin-3,5-dicarboxylate 3-ethylester 5-[3-(3-pyridyl)-2-propynyl]ester]
Average days of survival ([2]; i.v. once per day for 5 days): 15.7 days | Rate of prolongation of life T/C [2, 7]: 154% | inhibition at 1 µM [3]: 0%

CCOC(=O)C1=C(c2ccc(-n3c(C)nc4cnccc43)cc2)NC(C)=C(C(=O)OCC#Cc2cccnc2)C1/C=C/c1ccco1 (centres unmarked) [Compound 16, 4-[(E)-2-(2-Furyl)ethenyl]-6-methyl-2-[4-(2-methylimidazo[4,5c]pyridin-1-yl)phenyl]1,4-dihdropyridin-3,5-dicarboxylate 3-ethylester 5-[3-(3-pyridyl)-2-propynyl]ester]
Average days of survival ([2]; i.v. once per day for 5 days): 15.0 days | Rate of prolongation of life T/C [2, 7]: 147% | inhibition at 1 µM [3]: 0%

CCOC(=O)C1=C(c2ccc(-n3c(C)nc4cnccc43)cc2)NC(C)=C(C(=O)OCC#Cc2cccnc2)C1CCc1ccsc1 (centres unmarked) [Compound 17, 6-Methyl-2-[4-(2-methylimidazo[4,5-c]pyridin-1-yl)phenyl]-4-[2-(3-thienyl)ethyl]-1,4-dihydropyridin-3,5-dicarboxylate 3-ethylester 5-[3-(3-pyridyl)2-propynyl]ester]
Average days of survival ([2]; i.v. once per day for 5 days): 13.4 days | Rate of prolongation of life T/C [2, 7]: 146% | inhibition at 1 µM [3]: 0%

CCCCCC1C(C(=O)OC(C)C#Cc2cccnc2)=C(C)NC(c2ccc(-n3c(C)nc4cnccc43)cc2)=C1C(=O)OCC (centres unmarked) [Compound 22, 6-Methyl-2-[4-(2-methylimidazo[4,5-c]pyridin-1-yl)phenyl]-4-pentyl-1,4-dihydropyridin-3,5-dicarboxylate 3-ethylester 5-[1-methyl-3-(3-pyridyl)-2-propynyl]ester]
Average days of survival ([2]; i.v. once per day for 5 days): 14.6 days | Rate of prolongation of life T/C [2, 7]: 159% | LD50 at 168 h [4]: > 1000 mg/kg | inhibition at 1 µM [3]: 0%

CCOC(=O)C1=C(c2ccc(-n3ccnc3)cc2)NC(C)=C(C(=O)OCC#Cc2cccnc2)C1/C=C/c1ccccc1 (centres unmarked) [Compound 24, 2-[4-(1-Imidazolyl)phenyl]-6-methyl-4-[(E)-2-phenylethenyl]-1,4-dihydropyridin-3,5-dicarboxylate 3-ethylester 5-[3-(3-pyridyl)-2-propynyl]ester]
LD50 at 168 h [4]: > 1000 mg/kg

CC[C@]1(O)C[C@H]2CN(CCc3c([nH]c4ccccc34)[C@@](C(=O)OC)(c3cc4c(cc3OC)N(C=O)[C@H]3[C@@](O)(C(=O)OC)[C@H](OC(C)=O)[C@]5(CC)C=CCN6CC[C@]43[C@@H]65)C2)C1 [VCR, vincristine]
Degree of resistance for VCR, VJ-300 (VCR alone, control) (KB/VJ 300 cells [5]): 903-970

COc1cc([C@@H]2c3cc4c(cc3[C@@H](O[C@@H]3O[C@@H]5CO[C@@H](C)O[C@H]5[C@H](O)[C@H]3O)[C@H]3COC(=O)[C@H]23)OCO4)cc(OC)c1O [VP-16, Etoposide, reference compound]
Average days of survival (VP-16 alone) ([2]; VP-16 alone 3 mg/kg, i.v. once per day for 5 days): 9.5 days and 11.0 days and 10.5 days | Rate of prolongation of life T/C (VP-16 alone) ([2]; VP-16 alone 3 mg/kg, i.v. once per day for 5 days, vs control): 103% and 108% and 102% | Effect of overcoming resistance T/V (VP-16 alone) ([2]; VP-16 alone 3 mg/kg, reference = 100): 100% | Average days of survival (VP-16 alone) [6]: 10.6 days | Effect of overcoming resistance T/V (VP-16 alone) ([6]; reference = 100): 100% | Rate of prolongation of life T/C (VP-16 alone) ([6]; vs control): 102%

COc1ccc(CCN(C)CCCC(C#N)(c2ccc(OC)c(OC)c2)C(C)C)cc1OC (centres unmarked) [Verapamil, reference compound]
inhibition at 1 µM [3]: 42.3%

COC(=O)C1=C(C)NC(C)=C(C(=O)OCCN(C)Cc2ccccc2)C1c1cccc([N+](=O)[O-])c1 (centres unmarked) [nicardipine, reference compound]
effect of combined administration with an anti-cancer drug on multidrug resistance (multidrug resistance): effective | inhibition at 1 µM [3]: 100%
